Experimental data as given in PubChem BioAssay AID1963872 (Molecular Pharmacology Branch, DTP, NCI, 2024).

Tested on: KRAS patient-derived spheroids with HUVEC/MSC, viability
Assay: Anticancer human tumor 519858-162-T-J1-PDC patient-derived colon adenocarcinoma cell line growth inhibition [KRAS2]
Settings: for IC50: curve of first compound; for viability, T/C: stronger effect = lower value
Procedure, shortened: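 Combination screen of spheroid viability in tumor-cell co-cultures with endothelial (HUVEC) and mesenchymal stem cell stroma. Each agent was tested in half-log dilutions, topping at clinical Cmax or at 10 microM without a known Cmax.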

[1] = second compound 0.1 µM, first compound 0.0316 µM
[2] = second compound 0.1 µM, first compound 0.1 µM
[3] = second compound 0.316 µM, first compound 0.0316 µM
[4] = second compound 0.316 µM, first compound 0.1 µM
[5] = second compound 1 µM, first compound 0.0316 µM
[6] = second compound 1 µM, first compound 0.1 µM
[7] = second compound 3.16 µM, first compound 0.0316 µM
[8] = second compound 3.16 µM, first compound 0.1 µM
[9] = second compound 10 µM, first compound 0.0316 µM
[10] = second compound 10 µM, first compound 0.1 µM
[11] = second compound 0.1 µM, first compound 0.316 µM
[12] = second compound 0.1 µM, first compound 1 µM
[13] = second compound 0.1 µM, first compound 3.16 µM
[14] = second compound 0.1 µM, first compound 10 µM
[15] = second compound 0.316 µM, first compound 0.316 µM
[16] = second compound 0.316 µM, first compound 1 µM
[17] = second compound 0.316 µM, first compound 3.16 µM
[18] = second compound 0.316 µM, first compound 10 µM
[19] = second compound 1 µM, first compound 0.316 µM
[20] = second compound 1 µM, first compound 1 µM
[21] = second compound 1 µM, first compound 3.16 µM
[22] = second compound 1 µM, first compound 10 µM
[23] = second compound 3.16 µM, first compound 0.316 µM
[24] = second compound 3.16 µM, first compound 1 µM
[25] = second compound 3.16 µM, first compound 3.16 µM
[26] = second compound 3.16 µM, first compound 10 µM
[27] = second compound 10 µM, first compound 0.316 µM
[28] = second compound 10 µM, first compound 1 µM
[29] = second compound 10 µM, first compound 3.16 µM
[30] = second compound 10 µM, first compound 10 µM
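Note: compound exposure lasted seven days before readout.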
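Throughout, for viability, T/C: 100% = DMSO vehicle control viability.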

SMILES | IC50 (second compound 0.1 µM) [µM] | IC50 (second compound 0.316 µM) [µM] | IC50 (second compound 1 µM) [µM] | IC50 (second compound 3.16 µM) [µM] | IC50 (second compound 10 µM) [µM] | viability, T/C [1] [%] | viability, T/C [2] [%] | viability, T/C [3] [%] | viability, T/C [4] [%] | viability, T/C [5] [%] | viability, T/C [6] [%] | viability, T/C [7] [%] | viability, T/C [8] [%] | viability, T/C [9] [%] | viability, T/C [10] [%] | viability, T/C [11] [%] | viability, T/C [12] [%] | viability, T/C [13] [%] | viability, T/C [14] [%] | viability, T/C [15] [%] | further results
CC(C)n1nc(-c2ccc3oc(N)nc3c2)c2c(N)ncnc21 + CNCc1ccccc1-c1csc(C(C)Nc2nc(C)nc3cc(OC)c(OC)cc23)c1 | > 0.1 | > 0.1 | > 0.1 | 0.00541 | < 0.000316 | 67 | 53.5 | 66.8 | 62.5 | 73.1 | 86.3 | 49.6 | 43.1 | 0.36 | 0.73 | – | – | – | – | – | viability, T/C (second compound 0.1 µM, first compound 0.000316 µM): 80.2%; viability, T/C (second compound 0.1 µM, first compound 0.001 µM): 70.6%; viability, T/C (second compound 0.1 µM, first compound 0.00316 µM): 77.7%; viability, T/C (second compound 0.1 µM, first compound 0.01 µM): 72.5%; viability, T/C (second compound 0.316 µM, first compound 0.000316 µM): 76.5%; viability, T/C (second compound 0.316 µM, first compound 0.001 µM): 68.5%; viability, T/C (second compound 0.316 µM, first compound 0.00316 µM): 69.5%; viability, T/C (second compound 0.316 µM, first compound 0.01 µM): 83.2%; viability, T/C (second compound 1 µM, first compound 0.000316 µM): 91.9%; viability, T/C (second compound 1 µM, first compound 0.001 µM): 69.1%; viability, T/C (second compound 1 µM, first compound 0.00316 µM): 78.2%; viability, T/C (second compound 1 µM, first compound 0.01 µM): 42.7%; viability, T/C (second compound 3.16 µM, first compound 0.000316 µM): 68%; viability, T/C (second compound 3.16 µM, first compound 0.001 µM): 65%; viability, T/C (second compound 3.16 µM, first compound 0.00316 µM): 55.1%; viability, T/C (second compound 3.16 µM, first compound 0.01 µM): 39.8%; viability, T/C (second compound 10 µM, first compound 0.000316 µM): 0.52%; viability, T/C (second compound 10 µM, first compound 0.001 µM): 0.58%; viability, T/C (second compound 10 µM, first compound 0.00316 µM): 0.46%; viability, T/C (second compound 10 µM, first compound 0.01 µM): 0.32%
COc1cc(Nc2ncc3c(n2)-c2ccc(Cl)cc2C(c2c(F)cccc2OC)=NC3)ccc1C(=O)O + CC1OCC2(CCN(c3cnc(Sc4ccnc(N)c4Cl)c(N)n3)CC2)C1N | > 10 | > 10 | > 10 | 0.0316 | > 10 | 84.6 | 67.9 | 69.3 | 62.8 | 60.4 | 58.7 | 55.4 | 58 | 73 | 48.9 | 77.1 | 63.4 | 62 | 73.3 | 88.1 | viability, T/C [16]: 75.7%; viability, T/C [17]: 63%; viability, T/C [18]: 89%; viability, T/C [19]: 57.9%; viability, T/C [20]: 49.7%; viability, T/C [21]: 66.5%; viability, T/C [22]: 111%; viability, T/C [23]: 45.7%; viability, T/C [24]: 42.9%; viability, T/C [25]: 71.2%; viability, T/C [26]: 71.1%; viability, T/C [27]: 49.5%; viability, T/C [28]: 53.4%; viability, T/C [29]: 74.9%; viability, T/C [30]: 78%
CC1(C)CCC(CN2CCN(c3ccc(C(=O)NS(=O)(=O)c4ccc(NCC5CCOCC5)c([N+](=O)[O-])c4)c(Oc4cnc5[nH]ccc5c4)c3)CC2)=C(c2ccc(Cl)cc2)C1 + CC1OCC2(CCN(c3cnc(Sc4ccnc(N)c4Cl)c(N)n3)CC2)C1N | > 10 | > 10 | 4.32 | 2.98 | 3.65 | 81.4 | 93.4 | 72.6 | 71.3 | 65.7 | 74.5 | 48.8 | 58.4 | 89.7 | 66.9 | 91.2 | 82.3 | 72.6 | 78.2 | 89.1 | viability, T/C [16]: 69.5%; viability, T/C [17]: 67.8%; viability, T/C [18]: 57.4%; viability, T/C [19]: 42.8%; viability, T/C [20]: 58.7%; viability, T/C [21]: 59.9%; viability, T/C [22]: 23.5%; viability, T/C [23]: 61.7%; viability, T/C [24]: 62.8%; viability, T/C [25]: 60.2%; viability, T/C [26]: 29.9%; viability, T/C [27]: 74.8%; viability, T/C [28]: 61.6%; viability, T/C [29]: 60.6%; viability, T/C [30]: 23.5%
